Results taken from patent publication US12698269B2, “1-aryltetrahydropyridazine-3,5-dione derivative or salt thereof and insecticidal agent containing the compound and method for using same” (NIHON NOHYAKU CO., LTD., priority 2022, dated 2026).

What was measured:
Format in all cases: in vivo
[1] = tested on: Small Brown Planthopper (Laodelphax striatellus); experiment: Insecticidal test on small brown planthopper, dip treatment of rice seedlings; settings: 192 h, rice seedling dip, 8 days after inoculation, read-out: insecticidal efficacy (corrected mortality rate) against small brown planthopper
Excerpt: Insecticidal Test on Small Brown Planthopper (Laodelphax striatellus)
The compounds represented by the general formula (1) of the present invention or salts thereof were separately dispersed in water and diluted to 50 ppm or 500 ppm. Rice plant seedlings (variety: Nihonbare) were dipped in the agrochemical dispersions for 30 seconds. After air-dried, each seedling was put into a separate glass test tube and inoculated with ten 3rd-instar larvae of small brown planthopper, and then the glass test tubes were capped with cotton plugs. At 8 days after the inoculation, the numbers of surviving larvae and dead larvae were counted, the corrected mortality rate was calculated according to the formula shown below, and the insecticidal efficacy was evaluated according to the criteria of Test Example 1. Corrected mortality rate (%)=(Survival rate in a non-treatment plot−Survival rate in a treatment plot)/(Survival rate in a non-treatment plot)×100 [Expression 2]

[2] = tested on: Diamondback moth (Plutella xylostella); experiment: Insecticidal test on diamondback moth, dip treatment of Chinese cabbage seedlings with laid eggs; settings: 144 h, 6 days after treatment, read-out: insecticidal efficacy (corrected mortality rate) against diamondback moth
Excerpt: Insecticidal Test on Diamondback moth (Plutella xylostella)
Adults of diamondback moth were released onto Chinese cabbage seedlings and allowed to lay eggs thereon. At 2 days after the release of the adults, the Chinese cabbage seedlings with laid eggs were dipped for about 30 seconds in agrochemical dispersions diluted to 50 ppm or 500 ppm, each of which contained a different compound represented by the general formula (1) of the present invention as an active ingredient. After air-dried, the seedlings were kept in a thermostatic chamber at 25° C. At 6 days after the dip treatment, the number of surviving larvae per plot was counted, the corrected mortality rate was calculated according to the formula shown below, and the insecticidal efficacy was evaluated according to the criteria shown below. This test was conducted in triplicate using 10 adults of diamondback moth per plot. Corrected mortality rate (%)=(Survival rate in a non-treatment plot−Survival rate in a treatment plot)/(Survival rate in a non-treatment plot)×100 [Expression 1] Criteria: • A: the mortality rate is 100%. • B: the mortality rate is 90 to 99%. • C: the mortality rate is 80 to 89%. • D: the mortality rate is 50 to 79%. • E: the mortality rate is 0 to 49%.

[3] = tested on: Western Flower thrips (Frankliniella occidentalis); experiment: Insecticidal test on western flower thrips, kidney bean leaf pieces; settings: 96 h, 4 days after treatment, read-out: insecticidal efficacy (corrected mortality rate) against western flower thrips
Excerpt: Insecticidal Test on Western Flower thrips (Frankliniella occidentalis)
Female adults of western flower thrips were inoculated onto kidney bean leaf pieces, and allowed to lay eggs thereon for one day, then the female adults were removed. After 3 days, the hatched larvae on the leaf pieces were counted, and then the agrochemical dispersions diluted to 50 ppm or 500 ppm, each of which contained the compound described in Tables 1 to 4 as an active ingredient were applied. The number of larvae of the species surviving at 4 days after the treatment was counted, and the corrected mortality rate was calculated according to the formula shown below, and the insecticidal efficacy was evaluated according to the criteria of Test Example 1. This test was conducted in duplicate. Corrected mortality rate (%)=(Survival rate in a non-treatment plot−Survival rate in a treatment plot)/(Survival rate in a non-treatment plot)×100 [Expression 3]

CCCNC(=O)N1C(=O)C(=C(Nc2ccc(F)cc2)SC)C(=O)CN1c1ccc(C#N)nc1 [Compound No. 1-182, (5EZ)-2-(6-cyanopyridin-3-yl)-5-(((4-fluorophenyl)amino)(methylthio)methylene)-4,6-dioxo-N-propyl-tetrahydropyridazine-1(2H)-carboxamide]
100%: mortality at 50 ppm [1] | mortality at 500 ppm [1]

CSC(Nc1ccc(F)cc1)=C1C(=O)CN(c2ccc(C(F)(F)F)nc2)N(C(=O)OC(C)(C)C)C1=O [Compound No. 1-63, tert-butyl (5EZ)-5-(((4-fluorophenyl)amino)(methylthio)methylene)-4,6-dioxo-2-[6-(trifluoromethyl)pyridin-3-yl]-tetrahydropyridazine-1(2H)-carboxylate]
100%: mortality at 50 ppm ([2]; 50 ppm) | mortality at 500 ppm [2] | mortality at 50 ppm [1] | mortality at 500 ppm [1] | mortality at 50 ppm [3] | mortality at 500 ppm [3]

CSC(Nc1ccc(F)cc1)=C1C(=O)CN(c2ccc(C#N)nc2)N(C)C1=O [Compound No. 1-197, (4EZ)-5-(4-(((4-fluorophenyl)amino)(methylthio)methylene)-2-methyl-3,5-dioxo-tetrahydropyridazin-1(2H)-yl)picolinonitrile]
100%: mortality at 50 ppm [1] | mortality at 500 ppm [1] | mortality at 50 ppm [3] | mortality at 500 ppm [3]

CSC(Nc1ccc(F)cc1)=C1C(=O)CN(c2ccc(C#N)nc2)N(C(=O)C2CC2)C1=O [Compound No. 1-44, (4EZ)-5-(2-(cyclopropanecarbonyl)-4-(((4-fluorophenyl)amino)(methylthio)methylene)-3,5-dioxo-tetrahydropyridazin-1(2H)-yl)picolinonitrile]
100%: mortality at 500 ppm [2] | mortality at 50 ppm [1] | mortality at 500 ppm [1] | mortality at 50 ppm [3] | mortality at 500 ppm [3]
